Assay results from patent publication US20240390301A1, “COMBINATIONS OF PERIPHERAL 5-HT2A RECEPTOR ANTAGONISTS AND CENTRAL 5-HT2A RECEPTOR AGONISTS” (priority 2021, published 2024).
pIC50: −log10 of the molar value. Several values for one entry are separate records, joined by “and”; a condition that tells them apart may be missing. Equal entries are not always repeated. Where two headings read alike, the source gives them in different places.

What was measured:
[1] = target: T1, 5-HT2B receptor (Homo sapiens, UniProt P41595); assay: FLIPR Ca2+ flux functional assay, antagonist activity at 5-HT2B; format: cell-based; conditions: for 5-HT2B % Inh @ Max Dose: at max dose
T1 construct: host or cells: HEK293 (stably transfected)
Experimental: Key peripheral 5-HT2A receptors antagonists were tested for antagonist activity at several serotonin (5-HT) receptor subtypes (5-HT2A and 5-HT2B) using Ca^2+ flux functional assays, with the results summarized in Table 3. […] The ability to block peripheral 5-HT2B receptors in addition to 5-HT2A receptors is advantageous in the context of the present disclosure, as such blockade is likely to mitigate the potential cardiac valvulopathy induced by 5-HT2B receptor agonists. This is expected to be a potential side effect of many classical psychedelics, which activate 5-HT2B receptors as a secondary target. Accordingly, xylamidine and BW501C67 are preferred over Compound 14a for use in combination with 5-HT2A receptor agonists that also activate 5-HT2B receptors, since they also block this important off target. When taken together with the binding data presented above, xylamidine and BW501C67 appear to be potent pan-antagonists for 5-HT2-type receptors, whereas Compound 14a is selective for 5-HT2A receptors specifically.
Functional Assays at 5-HT2A and 5-HT2B. Antagonist activity at 5-HT2A and 5-HT2B receptors was determined using a FLIPR Ca^2+ flux assay at WuXi AppTec (Hong Kong) Limited according to their standard protocols. Briefly, stably transfected HEK293 cells expressing the receptor of interest were grown and plated in a 384 well plate and incubated at 37° C. and 5% CO2 overnight. This was combined with a fluorescent dye (Fluo-4 Direct™) to make a final assay concentration of 2.5 mM. Compounds were diluted 1:3.16 for 10 points and 750 nL was added to a 384 well compound plate using ECHO along with 30 μL assay buffer. The fluorescent dye was then added to the assay plate along with assay buffer to a final volume of 40 μL. The cell plate was incubated for 50 min at 37° C. and 5% CO2 and placed into the FLIPR Tetra along with the compound plate. 10 μL of references and compounds were then transferred from the compound plate into the cell plate and the fluorescent signal was read. Next, 10 μL of a 6× solution of 5-carboxamidotryptamine (5-CT) at the calculated EC80 was added and the fluorescent signal read again. Finally, the Max-Min signal was calculated for the runs with and without agonist.

[2] = in vivo
Experimental: The pharmacokinetics of peripheral 5-HT2A antagonists were studied in the plasma (Tables 11 and 12) and brains (Table 13 and 14) of rats after subcutaneous (SC) dosing. The results were used to interpret the in vivo pharmacological results.
Animals. Male Sprague Dawley rats, aged 8-12 weeks. were used in these studies. Four rats were housed in each cage. […] Temperature and humidity were recorded by an auto-controlled data logger system. All animals were provided laboratory rodent diet and were fasted for 4 h pre-dose and 2 h post-dose. Reverse osmosis water treated with ultraviolet light was provided ad libitum. Animals were randomly assigned to treatment groups.
Drugs and Drug Administration. Test compounds were prepared as described above or commercially obtained. They were administered subcutaneously (SC) at a dose of 1 or 10 mg/kg (as indicated, calculated based on the free base) and at a volume of 5 mL/kg body weight.
Sample Collection and Bioanalysis. […] SC. […] For both studies, immediately after blood collection, plasma was harvested by centrifugation at 4,000 rpm for 10 min at 4° C. and samples were stored at −70±10° C. until bioanalysis. Following blood collection, animals were immediately sacrificed, the abdominal vena-cava was cut open, and the whole body was perfused from the heart using 10 mL of normal saline, and brain samples were collected from all animals. After isolation, brain samples were rinsed three times in ice-cold normal saline (for 5-10 seconds/rinse using ˜5-10 mL normal saline in disposable petri dish for each rinse) and dried on blotting paper. Brain samples were homogenized using ice-cold phosphate-buffered saline (pH 7.4). Total homogenate volume was three times the tissue weight. All homogenates were stored at −70±10° C. until bioanalysis. For bioanalysis, 25 μL aliquots of plasma/brain study samples or spiked plasma/brain calibration standards were added to individual pre-labeled micro-centrifuge tubes followed by 100 μL of an internal standard solution (glipizide, 500 ng/ml in acetonitrile) except for blanks, where 100 μL of acetonitrile was added. Samples were vortexed for 5 minutes and then centrifuged for 10 minutes at 4,000 rpm at 4° C. Following centrifugation, 100 μL of each clear supernatant was transferred to a 96-well plate and analyzed with a fit-for-purpose LC-MS/MS method, with authentic samples of each analyte used for calibration and identification.

[3] = Metabolic stability in human liver microsomes; format: in vitro ADME; conditions: for half-life at 1 μM / microsomal CLint at 1 μM: both sexes, human, microsomes, pH 7.4
Experimental: HLM Stability. Pooled HLM from adult male and female donors (Corning 452117) were used. Microsomal incubations were carried out in multi-well plates. Liver microsomal incubation medium consisted of PBS (100 mM, pH 7.4), MgCl2 (1 mM), and NADPH (1 mM), with 0.50 mg of liver microsomal protein per mL. Control incubations were performed by replacing the NADPH-cofactor system with PBS. Test compounds (1 μM, final solvent concentration 1.0%) were incubated with microsomes at 37° C. with constant shaking. Six time points over 60 minutes were analyzed, with 60 μL aliquots of the reaction mixture being drawn at each time point. The reaction aliquots were stopped by adding 180 μL of cold (4° C.) acetonitrile containing 200 ng/mL tolbutamide and 200 ng/ml labetalol as internal standards (IS), followed by shaking for 10 minutes, and then protein sedimentation by centrifugation at 4,000 rpm for 20 minutes at 4° C. Supernatant samples (80 μL) were diluted with water (240 μL) and analyzed for parent compound remaining using a fit-for-purpose liquid chromatography-tandem mass spectrometry (LC-MS/MS) method.
Data Analysis. The elimination constant (kel), half-life (t1/2), and intrinsic clearance (CLint) were determined in a plot of […] versus time, using linear regression analysis.

[4] = antagonist activity, Ca2+ flux, HEK293 cells, agonist at EC80
[5] = male, Sprague Dawley, rat, in vivo, sc, 1 mg/kg
[6] = HLM, 1 μM, 0.50 mg protein per mL, NADPH
[7] = antagonist activity, Ca2+ flux, HEK293 cells, agonist at EC80, read-out: 5-HT2B IC50
[8] = male, Sprague Dawley, rat, in vivo, sc, 10 mg/kg

T1 sequence (P41595 whole entry): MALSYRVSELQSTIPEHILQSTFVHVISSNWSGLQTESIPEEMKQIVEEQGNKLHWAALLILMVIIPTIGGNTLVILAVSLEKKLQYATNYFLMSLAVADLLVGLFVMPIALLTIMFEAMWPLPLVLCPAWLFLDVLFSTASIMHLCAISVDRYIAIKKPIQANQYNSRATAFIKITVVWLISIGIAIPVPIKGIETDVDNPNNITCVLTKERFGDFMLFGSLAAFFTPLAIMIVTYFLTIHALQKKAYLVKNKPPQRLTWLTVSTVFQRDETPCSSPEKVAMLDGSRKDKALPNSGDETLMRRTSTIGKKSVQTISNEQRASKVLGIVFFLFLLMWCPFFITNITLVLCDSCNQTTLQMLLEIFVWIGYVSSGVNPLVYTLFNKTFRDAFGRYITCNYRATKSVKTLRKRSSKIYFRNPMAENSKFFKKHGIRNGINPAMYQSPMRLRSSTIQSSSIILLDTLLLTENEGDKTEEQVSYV

Question: With CC(CNC(=N)CNc1ccccc1)Oc1cccc(Cl)c1.O=CO (stereo not drawn) [BW501C67, N-(2-(3-chlorophenoxy)propyl)-2-(phenylamino)acetimidamide formate] as the compound, how does the pIC50 [1] read?
Answer: 7.66

Question: And the “5-HT2B IC50 (nM)” value [1, 4]?
Answer: high potency antagonism

Question: What about the “5-HT2B % Inh @ Max Dose” value ([1]; antagonist activity, Ca2+ flux) of the same compound?
Answer: 99.74%

Question: And the Cmax [2, 5]?
Answer: 91.4 ng/mL and 32.3 ng/g

Question: What about the concentration at 0.167 h [2, 5] of the same compound?
Answer: 91.4 ng/mL and 10.4 ng/g

Question: What about the concentration at 0.5 h [2, 5] of the same compound?
Answer: 73.8 ng/mL and 13.6 ng/g

Question: And the half-life [2, 5]?
Answer: 187 min

Question: And the AUC(0-t) ([2]; male, Sprague Dawley, rat, in vivo, sc, 1 mg/kg, AUC0-last (h*ng/mL), brain, 1 mg/kg SC)?
Answer: 0.436 µg·h/mL

Question: And the AUC(0-t) ([2]; male, Sprague Dawley, rat, in vivo, sc, 1 mg/kg, AUC0-last (h*ng/mL), plasma, 1 mg/kg SC)?
Answer: 0.277 µg·h/mL

Question: And the Tmax ([2]; male, Sprague Dawley, rat, in vivo, sc, 1 mg/kg, Tmax (h), brain, 1 mg/kg SC)?
Answer: 240 min

Question: And the Tmax ([2]; male, Sprague Dawley, rat, in vivo, sc, 1 mg/kg, Tmax (h), plasma, 1 mg/kg SC)?
Answer: 10.2 min

Question: And the “Metabolic stability in HLM” value [3]?
Answer: poor metabolic stability

Question: And the half-life at 1 μM [3, 6]?
Answer: 7.2 min

Question: What about the microsomal CLint at 1 μM [3, 6] of the same compound?
Answer: 192 µL/min/mg

Question: With CC(C)COc1ccc(CNC(=O)N(Cc2ccc(F)cc2)C2CCN(C(=O)CC[C@H](N)C(=O)O)CC2)cc1 [Compound 14a, (S)-2-amino-5-(4-(1-(4-fluorobenzyl)-3-(4-isobutoxybenzyl)ureido)piperidin-1-yl)-5-oxopentanoic acid] as the compound, how does the pIC50 [1, 7] read?
Answer: < 5.00

Question: What about the “5-HT2B % Inh @ Max Dose” value ([1]; antagonist activity, Ca2+ flux) of the same compound?
Answer: −12.17%

Question: And the AUC(0-t) [2, 5]?
Answer: 0.434 µg·h/mL

Question: What about the Cmax [2, 5] of the same compound?
Answer: 0.271 µg/mL

Question: What about the Tmax [2, 5] of the same compound?
Answer: 30 min

Question: And the concentration at 0.167 h [2, 5]?
Answer: 0.265 µg/mL

Question: And the concentration at 0.5 h [2, 5]?
Answer: 0.271 µg/mL

Question: And the half-life [2, 5]?
Answer: 51 min

Question: What about the concentration at 0.167 h [2, 8] of the same compound?
Answer: 966 ng/mL and 35.6 ng/g

Question: And the concentration at 0.5 h [2, 8]?
Answer: 1530 ng/mL and 40.7 ng/g

Question: What about the “Metabolic stability in HLM” value [3] of the same compound?
Answer: highly stable

Question: And the half-life at 1 μM [3, 6]?
Answer: > 145 min

Question: And the microsomal CLint at 1 μM [3, 6]?
Answer: < 9.6 µL/min/mg

Question: Which results are given for COc1cccc(CCc2ccccc2OCC(CN(C)C)OC(=O)CCC(=O)O)c1 (stereo not drawn) [sarpogrelate]?
Answer: concentration at 0.167 h [2, 8]: 2130 ng/mL and 28.9 ng/g; concentration at 0.5 h [2, 8]: 2990 ng/mL and 31.8 ng/g

Question: With COc1cccc(C(=O)Nc2ccc(OCCN3CCOCC3)c(-c3ccnn3C)c2)c1 [temanogrel] as the compound, how does the concentration at 0.167 h [2, 8] read?
Answer: 411 ng/mL and 113 ng/g

Question: What about the concentration at 0.5 h [2, 8] of the same compound?
Answer: 518 ng/mL and 148 ng/g

Question: For COc1cccc(OC(C)CNC(=N)Cc2cccc(C)c2)c1.O=C(O)C(F)(F)F (stereo not drawn) [xylamidine, N-(2-(3-methoxyphenoxy)propyl)-2-(m-tolyl) acetimidamide trifluoroacetate], which “5-HT2B IC50 (nM)” value [1, 4] is on record?
Answer: high potency antagonism

Question: What about the pIC50 [1, 7] of the same compound?
Answer: 7.88

Question: What about the “5-HT2B % Inh @ Max Dose” value ([1]; antagonist activity, Ca2+ flux) of the same compound?
Answer: 99.68%

Question: And the “Tmax” value ([2]; brain, 1 mg/kg SC)?
Answer: 60 min

Question: What about the “t1/2” value ([2]; brain, 1 mg/kg SC) of the same compound?
Answer: 289 min

Question: What about the “0.167 h (ng/g) brain concentration” value ([2]; brain, 1 mg/kg SC, 0.167 h) of the same compound?
Answer: 14.4 ng/g

Question: What about the “0.5 h (ng/g) brain concentration” value ([2]; brain, 1 mg/kg SC, 0.5 h) of the same compound?
Answer: 35.4 ng/g

Question: And the “Mean brain concentration 0.167 h” value ([2]; brain, 10 mg/kg SC, 0.167 h)?
Answer: 100.8 ng/g

Question: And the “Mean brain concentration 0.5 h” value ([2]; brain, 10 mg/kg SC, 0.5 h)?
Answer: 60.7 ng/g

Question: What about the “AUC0-last” value ([2]; plasma, 1 mg/kg SC) of the same compound?
Answer: 0.3436 µg·h/mL

Question: And the “Cmax” value ([2]; plasma, 1 mg/kg SC)?
Answer: 0.1554 µg/mL

Question: And the “Tmax” value ([2]; plasma, 1 mg/kg SC)?
Answer: 10.2 min

Question: What about the “t1/2” value ([2]; plasma, 1 mg/kg SC) of the same compound?
Answer: 103 min

Question: And the “0.167 h (ng/mL) plasma concentration” value ([2]; plasma, 1 mg/kg SC, 0.167 h)?
Answer: 155.4 ng/mL

Question: What about the “0.5 h (ng/mL) plasma concentration” value ([2]; plasma, 1 mg/kg SC, 0.5 h) of the same compound?
Answer: 133.4 ng/mL

Question: And the “Mean plasma concentration 0.167 h” value ([2]; plasma, 10 mg/kg SC, 0.167 h)?
Answer: 1.0992 µg/mL

Question: And the “Mean plasma concentration 0.5 h” value ([2]; plasma, 10 mg/kg SC, 0.5 h)?
Answer: 0.67 µg/mL

Question: What about the “Metabolic stability in HLM” value [3] of the same compound?
Answer: poor metabolic stability

Question: What about the “Clint” value [3, 6] of the same compound?
Answer: 448.6 µL/min/mg

Question: What about the “t1/2” value [3, 6] of the same compound?
Answer: 3.1 min
